Experimental data from US11051515B2, “3-acyl-benzamides and their use as herbicides” (Bayer Aktiengesellschaft, priority 2017, dated 2021).

Columns and labels:
VERPE [1] = experiment: Pre-emergence action against VERPE; assay type: in vivo, Veronica persica; conditions: Dosage 320 g/ha, pre-emergence
Method in brief: (§1)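 Seeds sown in sandy loam in wood-fiber pots and covered with soil. Greenhouse growth; visual damage scored after 3 weeks versus untreated controls (100% = dead, 0% = like control).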

VIOTR [2] = experiment: Post-emergence action against VIOTR; assay type: in vivo, Viola tricolor; conditions: post-emergence, dosage 80 g/ha
Method in brief: (§2)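 Post-emergence foliar spray on greenhouse plants at the one-leaf stage, using wettable-powder or emulsion-concentrate formulations in water (600 to […], plus 0.2% wetting agent). Damage scored by eye roughly 3 weeks later against untreated plants: 0% = like control, 100% = dead.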

DIGSA [3] = experiment: Pre-emergence action against DIGSA; assay type: in vivo, Digitaria sanguinalis; conditions: dosage 320 g/ha, scored visually after 3 weeks vs untreated controls
Method in brief: as §1

AMARE [4] = experiment: Post-emergence action against AMARE; assay type: in vivo, Amaranthus retroflexus; conditions: post-emergence, dosage 80 g/ha, visual assessment about 3 weeks after treatment vs untreated controls
Method in brief: as §2

LOLRI = experiment: Pre-emergence action against LOLRI; assay type: in vivo, Lolium rigidum; conditions: dosage 320 g/ha, scored visually after 3 weeks vs untreated controls
Method in brief: as §1

ALOMY [5] = experiment: Pre-emergence action against ALOMY; assay type: in vivo, Alopecurus myosuroides; conditions: dosage 320 g/ha; pre-emergence; scored visually after 3 weeks vs untreated controls; 100% = plants have died, 0% = like control plants
Method in brief: as §1

SETVI [6] = experiment: Pre-emergence action against SETVI; assay type: in vivo, Setaria viridis; conditions: pre-emergence, dosage 320 g/ha, scored visually after 3 weeks vs untreated controls
Method in brief: as §1

AVEFA = experiment: Pre-emergence action against AVEFA; assay type: in vivo, Avena fatua; conditions: dosage 320 g/ha, scored visually after 3 weeks vs untreated controls
Method in brief: as §1

MATIN [7] = experiment: Post-emergence action against MATIN; assay type: in vivo, Matricaria inodora; conditions: post-emergence, dosage 80 g/ha, visual assessment about 3 weeks after treatment vs untreated controls
Method in brief: as §2

VIOTR [8] = experiment: Pre-emergence action against VIOTR; assay type: in vivo, Viola tricolor; conditions: Dosage 320 g/ha, pre-emergence
Method in brief: as §1

STEME [9] = experiment: Post-emergence action against STEME; assay type: in vivo, Stellaria media; conditions: post-emergence, dosage 80 g/ha
Method in brief: as §2

DIGSA [10] = experiment: Post-emergence action against DIGSA; assay type: in vivo, Digitaria sanguinalis; conditions: dosage 80 g/ha, visual assessment about 3 weeks after treatment vs untreated controls
Description: Seeds of monocotyledonous and dicotyledonous weed and crop plants are laid out in sandy loam soil in wood-fiber pots, covered with soil and cultivated in a greenhouse under good growth conditions. 2 to 3 weeks after sowing, the test plants are treated at the one-leaf stage. The compounds of the invention, formulated in the form of wettable powders (WP) or as emulsion concentrates (EC), are then sprayed onto the green parts of the plants in the form of an aqueous suspension or emulsion at a water application rate equating to […], with addition of 0.2% wetting agent. After the test plants have been left to stand in the greenhouse under optimal growth conditions for about 3 weeks, the action of the preparations is assessed visually in comparison to untreated controls (herbicidal action in percent (%): 100% activity=the plants have died, 0% activity=like control plants). […] At the same time, inventive compounds leave Gramineae crops such as barley, wheat, rye, millet/Sorghum, corn or rice virtually undamaged when applied post-emergence, even at high active ingredient dosages. In addition, some substances are also harmless to dicotyledonous crops such as soya, cotton, oilseed rape, sugar beet or potatoes. Some of the compounds according to the invention have high selectivity and are therefore suitable for controlling unwanted vegetation in agricultural crops by the post-emergence method. The data of Tables B18 to B34 below illustrate, in an exemplary manner, the […] herbicidal action of the compounds according to the invention, the herbicidal activity being stated in percent.

PHBPU [11] = experiment: Pre-emergence action against PHBPU; assay type: in vivo, Pharbitis purpurea; conditions: Dosage 320 g/ha, pre-emergence
Method in brief: as §1

ECHCG [12] = experiment: Pre-emergence action against ECHCG; assay type: in vivo, Echinochloa crus-galli; conditions: pre-emergence, dosage 320 g/ha, scored visually after 3 weeks vs untreated controls
Method in brief: as §1

STEME [13] = experiment: Pre-emergence action against STEME; assay type: in vivo, Stellaria media; conditions: Dosage 320 g/ha, pre-emergence
Method in brief: as §1

POLCO [14] = experiment: Post-emergence action against POLCO; assay type: in vivo, Polygonum convolvulus; conditions: post-emergence, dosage 80 g/ha
Method in brief: as §2

ABUTH [15] = experiment: Pre-emergence action against ABUTH; assay type: in vivo, Abutilon theophrasti; conditions: pre-emergence, dosage 320 g/ha, scored visually after 3 weeks vs untreated controls
Method in brief: as §1

AMARE [16] = experiment: Pre-emergence action against AMARE; assay type: in vivo, Amaranthus retroflexus; conditions: pre-emergence, dosage 320 g/ha, scored visually after 3 weeks vs untreated controls
Method in brief: as §1

VERPE [17] = experiment: Post-emergence action against VERPE; assay type: in vivo, Veronica persica; conditions: dosage 80 g/ha
Method in brief: as §2

ECHCG [18] = experiment: Post-emergence action against ECHCG; assay type: in vivo, Echinochloa crus-galli; conditions: post-emergence, dosage 80 g/ha, visual assessment about 3 weeks after treatment vs untreated controls
Method in brief: as §2

PHBPU [19] = experiment: Post-emergence action against PHBPU; assay type: in vivo, Pharbitis purpurea; conditions: post-emergence, dosage 80 g/ha
Method in brief: as §2

MATIN [20] = experiment: Pre-emergence action against MATIN; assay type: in vivo, Matricaria inodora; conditions: Dosage 320 g/ha, pre-emergence
Method in brief: as §1

ABUTH [21] = experiment: Post-emergence action against ABUTH; assay type: in vivo, Abutilon theophrasti; conditions: post-emergence, dosage 80 g/ha, visual assessment about 3 weeks after treatment vs untreated controls
Method in brief: as §2

SETVI [22] = experiment: Post-emergence action against SETVI; assay type: in vivo, Setaria viridis; conditions: post-emergence, dosage 80 g/ha, visual assessment about 3 weeks after treatment vs untreated controls
Method in brief: as §2

ALOMY [23] = experiment: Post-emergence action against ALOMY; assay type: in vivo, Alopecurus myosuroides; conditions: Dosage 80 g/ha, post-emergence
Method in brief: as §2

POLCO [24] = experiment: Pre-emergence action against POLCO; assay type: in vivo, Polygonum convolvulus; conditions: Dosage 320 g/ha, pre-emergence
Method in brief: as §1

| SMILES | Pre-emergence action against VERPE (VERPE [1]) [%] | Post-emergence action against VIOTR (VIOTR [2]) | Pre-emergence action against DIGSA (herbicidal activity) (DIGSA [3]) [%] | Post-emergence action against AMARE (herbicidal action in percent) (AMARE [4]) [%] | Pre-emergence action against LOLRI (herbicidal activity) (LOLRI) [%] | Pre-emergence action against ALOMY (herbicidal activity in percent) (ALOMY [5]) [%] | SETVI (Table B8, pre-emergence herbicidal activity) (SETVI [6]) [%] | Pre-emergence action against AVEFA (herbicidal activity) (AVEFA) [%] | Post-emergence action against MATIN (herbicidal action in percent) (MATIN [7]) [%] | Pre-emergence action against VIOTR (VIOTR [8]) [%] | Post-emergence action against STEME (STEME [9]) | Post-emergence action against DIGSA (herbicidal action in percent) (DIGSA [10]) [%] | Pre-emergence action against PHBPU (PHBPU [11]) [%] | Pre-emergence action against ECHCG (herbicidal activity) (ECHCG [12]) [%] | Pre-emergence action against STEME (STEME [13]) [%] | Pre-emergence action against ABUTH (herbicidal activity) (ABUTH [15]) [%] | Pre-emergence action against AMARE (herbicidal activity) (AMARE [16]) [%] | Post-emergence action against VERPE (VERPE [17]) | Post-emergence action against ECHCG (herbicidal action in percent) (ECHCG [18]) [%] | Post-emergence action against PHBPU (PHBPU [19]) | other results |
| --- | --- | --- | --- | --- | --- | --- | --- | --- | --- | --- | --- | --- | --- | --- | --- | --- | --- | --- | --- | --- | --- |
| Cn1nnnc1NC(=O)c1ccc(C(F)(F)F)c(C(=O)C2CCC2)c1Cl [1-153] | 100 | 80 | 100 | 100 | 90 | 90 | 100 | 80 | 100 | 100 | 100 | 90 | 80 | 90 | 100 | 100 | 100 | 80 | 90 | 90 | Post-emergence action against POLCO (POLCO [14]): 80; Pre-emergence action against MATIN (MATIN [20]): 100%; Post-emergence action against ABUTH (herbicidal action in percent) (ABUTH [21]): 100%; Post-emergence action against SETVI (herbicidal action in percent) (SETVI [22]): 100%; Post-emergence action against ALOMY (ALOMY [23]): 80% |
| CCn1nnnc1NC(=O)c1ccc(C(F)(F)F)c(C(=O)CCl)c1C [2-22] | 100 | 100 | 100 | 80 | 90 | 90 | 100 | 100 | 90 | 100 | 90 | 90 | 80 | 90 | 100 | 100 | 100 | 80 | 90 | 100 | Pre-emergence action against MATIN (MATIN [20]): 100%; Pre-emergence action against POLCO (POLCO [24]): 80%; Post-emergence action against ABUTH (herbicidal action in percent) (ABUTH [21]): 90%; Post-emergence action against SETVI (herbicidal action in percent) (SETVI [22]): 80%; Post-emergence action against ALOMY (ALOMY [23]): 80% |
